One series concerns Human FcR. In words: Human FcR binding. The conditions noted are these: Table 4 summary.
Series [1] relates to TYRP1 (+) human 624mel cells. Put plainly: Complement dependent cytotoxicity (CDC) assay. Conditions: for induction of CDC (in words): 624mel cells in vitro; for Human CDC (%): Table 4 summary, 624mel cells. The format is cell-based. The protocol:
Wash human melanoma cell line 624mel 3 times and bring to a concentration of 10^6 viable cells/mL in a suitable media, such as AIM V Media (Invitrogen Life Technologies). […] Add low-Tox-M Rabbit complement (Cedarlane Labs, Westbury, N.Y.) diluted 1:5 in AIM V at 50 μl/well and incubate for 1 hr at 37° C. Count cells for viability with Trypan Blue (Invitrogen Life Technologies).

The test system of series [2] is TYRP1 (+) human 624mel cells. Put plainly: Antibody dependent cellular cytotoxicity (ADCC) against human melanoma in vitro. The conditions noted are these: 624mel cells in vitro. Type of series: cell-based. The procedure:
Collect and wash 624mel cells with a suitable media, such as AIM V media (Invitrogen Life Technologies) and plate the cells at a density of 10,000 cells /well in a 100 μL volume, in a 96-well Falcon U bottom plate. Add antibodies at 5 μg/mL in a 50 μL volume and incubate at 37° C. for 0.5 hr with target cells. Effector cells were added in a volume of 50 μL at various E:T (effector:target) ratios. Plates were further incubated for 4 hrs at 37° C. After incubation, plates were spun down at 800 g, and 100 μL of supernatants were gently transferred to 96 well flat bottom plates. Lactate dehydrogenase assay reagent was added as specified by the manufacturer (Roche) and plates were read at 490 nm. Controls in assay: Target Spontaneous and Target Maximum (by adding 50 μL of 4% triton).
Lysis is dependent on the effector to target concentration with lysis of 50% of target cells occurring at an E:T ratio of 100:1.

Another series concerns 624mel xenograft. In words: 624mel subcutaneous xenograft model. The format is in vivo, nude mice. The procedure: (§1) For the following subcutaneous studies, tumor volumes are calculated by the formula [π/6(W1×W2×W2)], where W1 represents the largest tumor diameter and W2 represents the smallest tumor diameter. % T/C=100×(Treatment Volume/Initial Volume)/(Control Volume/Initial Volume). Statistical analysis is done using traditional p-value techniques. For the subcutaneous studies the p value is calculated based on the tumor volume of animals receiving the anti-TYPR antibody verses the tumor volume of the control animals. […] Statistical analysis is done using traditional p-value techniques. For the metastatic studies the p-value is calculated based on the nodules observed in the animals receiving the anti-TYPR antibody verses the nodules observed in the control animals.
(§2) Harvest, wash and resuspend 624mel cultured cells in a 50/50 solution of Matrigel and RPMI 1640 media (10% FBS heat inactivated). For the subcutaneous tumor model, inject 2×10^6 cells subcutaneously into the left flank of nude mice. When tumors reach 200 mm^3, treat mice with anti-TYRP1 antibodies or control human IgG; administer antibodies 1 mg/mouse three times per week. Measure tumors with calipers twice a week and calculate % T/C. […] Tumor growth was inhibited and reached statistical significance at day 16 post initiation of antibody treatment (T/C=44%; P=0.01). […] Lysates of skins from different species are incubated with TA99 (5 μg/ml) for 2 hours at room temperature. The lysates are then precipitated with protein A and subjected to SDS-PAGE under reducing and non-reducing conditions using […]. After electrophoresis, the gels are transferred to PVDF membrane (Invitrogen Life Technologies). […] The blot is developed using a chemiluminescent substrate (KPL, Gaithersburg, Md.).
For the subcutaneous tumor model, harvest, wash and resuspend 624mel cultured cells in a 50/50 solution of Matrigel and RPMI 1640 media (10% FBS heat inactivated), then inject 2×10^6 624mel cells subcutaneously into the left flank of nude mice. […] Measure tumors with calipers twice a week and calculate % T/C. […]

Another series concerns SKmel28 xenografts. Put plainly: SKmel28 subcutaneous xenograft model. The format is in vivo, nude mice. The procedure:
as §1, §2
Mix Skmel28 cells in a 50/50 solution of Matrigel and RPMI 1640 media (10% FBS heat inactivated). Inject 2×10^6 cells subcutaneously into the left flank of nude mice. When tumors reach 200 mm^3, treat mice with anti-TYRP1 antibodies (6 mg/kg, 20 mg/kg, or 60 mg/kg) or control human IgG three times per week. Measure tumors with calipers twice a week and calculate % T/C. […] The anti-tumor effects at each dose were statistically significant: […] (T/C=50%; P=0.04), […] (T/C=19%; P<0.003).

For another series, the system named is B16BL6 murine melanoma. Put plainly: B16BL6 metastatic melanoma model (lung surface nodules). The format is in vivo, nude mice. Conditions: for Inhibition of lung metastases: B16BL6 i.v., day 20. The procedure:
as §1
(§3) B16BL6 is an aggressive and spontaneously arising murine melanoma. It forms lung metastases in nude mice after intravenous administration. Harvest, wash and resuspend cultured SKmel23 and B16BL6 cells melanoma cells in RPMI 1640 media (10% FBS heat inactivated).
Model 1: Inject 1×10^5 B16BL6 cells intravenously. On the second day after the tumor injection, administer to mice anti-TYRP1 antibodies or control human IgG, according to three different dose concentrations (200 μg/mouse, 500 μg/mouse, and 1 mg/mouse). Sacrifice mice on day 20, remove lungs, count lung surface nodules and calculate percent inhibition.
(§4) For the subcutaneous model, harvest, wash and resuspend cultured 624mel cells, in a 50/50 solution of Matrigel and RPMI 1640 media (10% FBS heat inactivated). Inject 2×10^6 624mel cells into the left flank of nude mice. When tumors reach 200 mm^3, treat mice with anti-TYRP1 antibodies, DTIC, or a combination of anti-TYRP1 antibodies and DTIC. Administer 40 mg/kg antibodies once per week. Administer DTIC 5 mg/kg once per week. Measure tumors with calipers twice a week and calculate % T/C. For metastatic model, harvest, wash and resuspend cultured SKmel23, 888mel and B16 melanoma cells, in RPMI 1640 media (10% FBS heat inactivated). Inject SKmel23, 888mel and B16 melanoma cells intravenously. On the second day after the tumor injection, administer to mice anti-TYRP1 antibodies or control human IgG. Sacrifice mice on day 20, remove lungs, count lung surface nodules and calculate percent inhibition.

The test system of a further series is human SKmel23 cells. In words: SKmel23 metastatic melanoma model (lung surface nodules). Type of series: in vivo, nude mice. Conditions: for reduced metastasis (percent inhibition of lung nodules): SKmel23 i.v., day 20. The procedure: as §1, §3
Model 2: Inject 1×10^5 human SKmel23 cells intravenously. On the second day after the tumor injection, administer to mice anti-TYRP1 antibodies or control human IgG, according to two different dose concentrations (200 μg/mouse and 500 μg/mouse). Sacrifice mice on day 20, remove lungs, count lung surface nodules and calculate percent inhibition.
as §4

In another series the test system is 888mel cells. In words: 888mel metastatic melanoma model (lung surface nodules). Type of series: in vivo, nude mice. The procedure:
as §1
For the metastatic model, harvest, wash and resuspend 888mel cultured cells in RPMI 1640 media (10% FBS heat inactivated), inject 888mel cells intravenously. On the second day after the tumor injection, administer to mice anti-TYRP1 antibodies or control human IgG. Sacrifice mice on day 20, remove lungs, count lung surface nodules and calculate percent inhibition.
For the subcutaneous model, harvest, wash and resuspend cultured 624mel cells, in a 50/50 solution of Matrigel and RPMI 1640 media (10% FBS heat inactivated). Inject 2×10^6 624mel cells into the left flank of nude mice. […]

The text below walks through data of US7951370B2, “Anti-TYRP1 antibodies” (ImClone LLC, priority 2008, dated 2011).

In general, T/C refers to the ratio of treated to control. What is called % inhibition is the change of the read-out against control, counted positive when it falls.

As to “20D7: recombinant human monoclonal antibody, full length IgG1κ targeting TYRP1; heavy chain SEQ ID NO 29, light chain SEQ ID NO 32 [Antibody 20D7]”, the “Human FcR binding” value in the series on Human FcR amounted to 110 pM. In addition, in series [1], the “induction of CDC (in words)” value is listed as “induce CDC”. Further, in series [1], the “Human CDC (%)” value amounted to 100%. For the same substance, the “complement-mediated cell lysis (in words)” value in series [1] (antibody concentration of 3.7 μg/mL) is on record as “complete cell lysis”. In addition, the “induction of ADCC (in words)” value in series [2] is “induce ADCC”. Moreover, the T/C with 624mel xenograft (624mel subcutaneous xenograft, 40 mg/kg twice per week) was determined as 21%; in the series with 624mel xenograft (established 624mel tumors, 1 mg/mouse three times per week, day 16 post initiation of antibody treatment), 44%; in the series with SKmel28 xenografts (SKmel28 dose response, 6 mg/kg three times per week) it was 69%; in the series with SKmel28 xenografts (SKmel28 dose response, printed as 6 mg/kg and 20 mg/kg, three times per week) it was 50%; with SKmel28 xenografts (SKmel28 dose response, printed as 6 mg/kg and 60 mg/kg, three times per week), 19%; in the series with SKmel28 xenografts (SKmel28 xenografts, vs human IgG control, day 43) it was 51%. Moreover, the “% T/C” value in the series on 624mel xenograft (Table 9, Subcutaneous, 624mel, antibody 40 mg/kg once per week, DTIC 5 mg/kg once per week) stood at 50%. For the same substance, the “Inhibition of lung metastases” value in the series with B16BL6 murine melanoma (200 μg/mouse) was determined as 65%; in the series on B16BL6 murine melanoma (500 μg/mouse), 74%; in the series with B16BL6 murine melanoma (1 mg/mouse), 95%. Further, the “% inhibition” value in the series with B16BL6 murine melanoma (Table 9, Metastatic, B16) was found to be 95%; in the series on human SKmel23 cells (Table 9, Metastatic, SKmel23), 80%; with 888mel cells (Table 9, Metastatic, 888 mel), 77%. Moreover, the figures for the “reduced metastasis (percent inhibition of lung nodules)” value in the series with human SKmel23 cells (200 μg/dose) and in the series with human SKmel23 cells (500 μg/dose) were 58% and 73%, respectively. In the series on 888mel cells (888mel i.v. in nude mice, day 20), the “inhibition of lung surface metastasis” value worked out at 77%.
On to “CTA99: chimeric anti-TYRP1 antibody with TA99 variable regions and human constant region IgG1; SEQ ID NO 31 and 33”, for which the “induction of CDC (in words)” value in series [1] is recorded as “induce CDC”. For the same substance, the “Human CDC (%)” value in series [1] stood at 94%. Besides, the “CDC percentage of cytotoxicity” value was 9.5% in series [1] (antibody concentration 0.05 μg/mL), 53% in series [1] (antibody concentration 0.41 μg/mL), 54% in series [1] (antibody concentration 1.23 μg/mL) and 95% in series [1] (antibody concentration 3.7 μg/mL). Besides, the “induction of ADCC (in words)” value in series [2] is on record as “induce ADCC”. For the same substance, the “reduced metastasis (percent inhibition of lung nodules)” value in the series on human SKmel23 cells (200 μg/dose) stood at 63%; in the series on human SKmel23 cells (500 μg/dose), 75%.
